Data on 46 compounds can be found in US20150148256A1, “BIOLUMINESCENCE IMAGING-BASED SCREENING ASSAY AND INHIBITORS OF ABCG2” (THE JOHNS HOPKINS UNIVERSITY, priority 2008, published 2015).

Structures can show the parent of a compound that is named as a salt.

One series concerns the target T1, ABCG2 (Homo sapiens, UniProt Q9UNQ0).
T1 sequence (Q9UNQ0 1-655): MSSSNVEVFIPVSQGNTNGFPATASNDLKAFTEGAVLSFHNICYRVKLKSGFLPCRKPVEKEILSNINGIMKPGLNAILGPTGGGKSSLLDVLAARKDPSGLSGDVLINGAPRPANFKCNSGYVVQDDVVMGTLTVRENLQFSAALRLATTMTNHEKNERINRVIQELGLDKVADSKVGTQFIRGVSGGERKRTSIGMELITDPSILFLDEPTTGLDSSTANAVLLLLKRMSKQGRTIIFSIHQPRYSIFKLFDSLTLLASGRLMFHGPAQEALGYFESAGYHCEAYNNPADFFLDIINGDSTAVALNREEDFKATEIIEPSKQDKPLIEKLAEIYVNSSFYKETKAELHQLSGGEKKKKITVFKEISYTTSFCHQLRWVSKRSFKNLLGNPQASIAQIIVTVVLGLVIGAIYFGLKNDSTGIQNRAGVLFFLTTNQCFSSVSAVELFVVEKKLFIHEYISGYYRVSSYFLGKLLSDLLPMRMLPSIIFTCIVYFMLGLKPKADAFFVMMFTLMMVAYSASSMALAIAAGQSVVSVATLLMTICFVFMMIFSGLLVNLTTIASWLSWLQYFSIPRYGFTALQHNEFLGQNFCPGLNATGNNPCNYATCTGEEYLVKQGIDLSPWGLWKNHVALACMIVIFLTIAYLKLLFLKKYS
The series can be described thus: Bioluminescence imaging (BLI) assay in HEK293/ABCG2/fLuc cells.
Conditions: not given
The protocol: HEK293/ABCG2/fLuc cells were plated into 96-well plates at a density of 4×10^4 cells/100 μL per well and were allowed to attach overnight. The following day, 10 μL of each compound or the control solvent was transferred from a compound library in a 96-well, high-throughput format into the wells using a multichannel pipette. […] Images were taken every 5 minutes for ˜1 h. Light output from each well was quantified at the 40 min time point after initiation of imaging, and the signal-to-background (S/B) ratio of the light output from each compound divided by that from the control well was calculated. This S/B ratio serves as an indicator of the potency of ABCG2 inhibition, the mechanism by which BLI signal is enhanced.
Images were taken every 5 min for ˜1 h, and light output from each well at the 40 min time point was chosen for quantification. The SB ratio of the light output from each compound divided by that from the control well was calculated. This ratio was used as an indicator of the potency of ABCG2 inhibition, the mechanism by which BLI signal is enhanced.
The BLI signal-enhancing effect of selected ABCG2 inhibitors was evaluated within the range of 0.001 μM-100 μM, with HEK293/ABCG2/fLuc cells and 50 μg/mL D-luciferin. The data obtained at 40 min after imaging commencement were chosen arbitrarily to be plotted (FIG. 3).
With `CS(=O)(=O)O.O=C(O[C@H]1C[C@H]2CC3C[C@@H](C1)N2CC3=O)c1c[nH]c2ccccc12` [dolasetron mesylate], the “Fold (BLI enhancement, S/B ratio over control)” value was 3.0 fold.

The series is the same for the next values; noted with them: BLI screen, approximately 17 μM, 40 min.
For the compound `COc1ccc(-c2cc(=O)c3c(O)cc(O)cc3o2)cc1` [acacetin], the “BLI signal enhancement” value is listed as 1.8 fold.

Still in this series, the particulars now being: Table 2; HEK293/ABCG2/fLuc cells, compound approximately 17 μM, ~50 μg/mL D-luciferin, 40 min time point.
On to `COc1ccc2c3c([nH]c2c1)C(C)=NCC3` [harmaline], for which the “Fold (BLI enhancement, S/B ratio over control)” value is recorded as 8.8 fold.

Turning to hesperidin methyl chalcone, the “Fold (BLI enhancement, S/B ratio over control)” value was 2.1 fold.

As for `C[C@]12CC[C@@H]3c4ccc(O)cc4CC[C@H]3[C@@H]1CC[C@@H]2O` [13-estradiol], the “Fold (BLI enhancement, S/B ratio over control)” value turned out to be 4.2 fold.

estrone hemisuccinate: the “Fold (BLI enhancement, S/B ratio over control)” value worked out at 5.4 fold.

With `CC(=O)[C@@]1(O)CC[C@H]2[C@@H]3C=C(Cl)C4=CC(=O)[C@@H]5C[C@@H]5[C@]4(C)[C@H]3CC[C@@]21C` [cyproterone], the “Fold (BLI enhancement, S/B ratio over control)” value is listed as 2.0 fold.

As to `C[C@]12CC[C@@H]3c4ccc(O)cc4CC[C@H]3[C@@H]1CC[C@@H]2OC(=O)CCC1CCCC1` [estradiol cypionate], the “Fold (BLI enhancement, S/B ratio over control)” value was determined as 3.6 fold.

Consider `COS(=O)(=O)[O-].C[n+]1c2ccccc2nc2ccccc21` [phenazine methosulfate], for which the “Fold (BLI enhancement, S/B ratio over control)” value turned out to be 2.8 fold.

For `COc1ccc(C(=O)c2c(C)n(CCN3CCOCC3)c3ccccc23)cc1` [pravadoline], the “Fold (BLI enhancement, S/B ratio over control)” value was found to be 2.7 fold.

As for `CSc1ccc2c(c1)N(CCC1CCCCN1C)c1ccccc1S2` (stereo not drawn) [th oridaz ne], the “Fold (BLI enhancement, S/B ratio over control)” value is on record as 2.5 fold.

Still in this series, the particulars now being: Table 4; approximately 17 μM, 40 min time point.
For `COc1ccc2c3c([nH]c2c1)C(C)=NCC3` [harmaline], the “Fold (BLI enhancement), previously unknown compounds” value (“Fold … previously unknown compounds” for short) is 8.8 fold.

For estrone hemisuccinate, the “Fold … previously unknown compounds” value was determined as 5.4 fold.

The series is the same for the next values; noted with them: Table 5; approximately 17 μM, 40 min time point.
Turning to `COc1ccc(-c2cc(=O)c3c(O)cc(O)cc3o2)cc1` [acacetin], the “fold (BLI enhancement), additional previously known ABCG2 inhibitors” value was found to be 1.8 fold.

Staying with this series, now noted: human.
Turning to `CC[C@@H](C(=O)[C@@H](C)[C@@H](O)[C@H](C)CCc1ccc(C)c(O)c1C(=O)O)[C@H]1O[C@](CC)([C@H]2CC[C@](O)(CC)[C@H](C)O2)C[C@@H]1C` [lasalocid sodium], the “Fold (BLI enhancement, S/B ratio over control)” value was determined as 2.7 fold.

As for `COC(=O)C1=C(C)NC(C)=C(C(=O)OCCCN2CCC(c3ccccc3)(c3ccccc3)CC2)[C@H]1c1cccc([N+](=O)[O-])c1` [niguldipine], the “Fold (BLI enhancement), known compounds” value is on record as 5.9 fold and the “Fold (BLI enhancement, S/B ratio over control)” value is 5.9 fold.

The series is the same for the next values; noted with them: human, 40 min, 17 μM.
As to `OCCN(CCO)c1nc(N2CCCCC2)c2nc(N(CCO)CCO)nc(N3CCCCC3)c2n1` [dipyridamole], the “Fold (BLI enhancement), known compounds” value amounted to 7.1 fold; the “Fold (BLI enhancement, S/B ratio over control)” value is 7.1 fold; the “fold (BLI enhancement), additional previously known ABCG2 inhibitors” value was found to be 7.1 fold.

On to `CC(C)=CCC[C@]1(C)C=Cc2c(O)c3c(c(CC=C(C)C)c2O1)O[C@]12C(=C[C@@H]4C[C@H]1C(C)(C)O[C@@]2(C/C=C(/C)C(=O)O)C4=O)C3=O` [gambogic acid], for which the “Fold … previously unknown compounds” value is recorded as 6.0 fold and the “Fold (BLI enhancement, S/B ratio over control)” value is 6.0 fold.

For `Brc1c(NC2=NCCN2)ccc2nccnc12` [brimonidine], the “Fold (BLI enhancement, S/B ratio over control)” value is listed as 3.4 fold.

For the compound `CCC(=O)O[C@H]1CC[C@H]2[C@@H]3CCc4cc(O)ccc4[C@H]3CC[C@]12C` [estradiol propionate], the “Fold (BLI enhancement, S/B ratio over control)” value worked out at 2.6 fold.

Turning to `O=C(C1CCCCC1)N1CC(=O)N2CCc3ccccc3C2C1` (stereo not drawn) [praziquantel], the “Fold (BLI enhancement, S/B ratio over control)” value stood at 3.3 fold.

Turning to `N#CC(c1ccc(Cl)cc1)c1c(Cl)cc(-n2ncc(=O)[nH]c2=O)cc1Cl` (stereo not drawn) [diclazuril], the “Fold (BLI enhancement, S/B ratio over control)” value was found to be 2.4 fold.

Turning to `Cc1cc(O)cc(C)c1Cl` [chloroxylenol], the “Fold (BLI enhancement, S/B ratio over control)” value was 2.4 fold.

As to `CCCC(=O)O[C@]1(C(=O)COC(C)=O)CC[C@H]2[C@@H]3C[C@H](F)C4=CC(=O)C=C[C@]4(C)[C@@]3(F)[C@@H](O)C[C@@]21C` [difluprednate], the “Fold (BLI enhancement, S/B ratio over control)” value is given as 2.0 fold.

In the case of `CCN(CC)CCNc1ccc(CO)c2sc3ccccc3c(=O)c12` [hycanthone], the “Fold (BLI enhancement, S/B ratio over control)” value was 2.5 fold.

For the compound `COc1cc(O)c2c(c1)C(=O)c1cc(C)cc(O)c1C2=O` [physcion], the “Fold (BLI enhancement, S/B ratio over control)” value amounted to 2.1 fold.

Turning to `O=C1c2ccc(O)c(O)c2C(=O)c2c(O)ccc(O)c21` [quinalizarin], the “Fold (BLI enhancement, S/B ratio over control)” value is 3.0 fold.

`COc1ccc(/C=C/C(=O)c2ccc(OC)cc2OC)cc1` [metochalcone]: the “Fold (BLI enhancement, S/B ratio over control)” value was 2.8 fold.

As for `CCCn1c(=O)c2[nH]c(C3CCCC3)nc2n(CCC)c1=O` [1,3-dipropyl-8-cyclopentylxanthine], the “Fold (BLI enhancement, S/B ratio over control)” value amounted to 4.3 fold.

`CC(=O)O[C@]1(C(C)=O)CC[C@H]2[C@@H]3C=C(C)C4=CC(=O)CC[C@]4(C)[C@H]3CC[C@@]21C` [megestrol acetate]: the “Fold (BLI enhancement, S/B ratio over control)” value was 2.1 fold.

As to `CN1CCCN=C1/C=C/c1cccs1` [pyrantel], the “Fold (BLI enhancement, S/B ratio over control)” value worked out at 3.9 fold.

As for `Cc1ccc(-c2cc(C(F)(F)F)nn2-c2ccc(S(N)(=O)=O)cc2)cc1` [celecoxib], the “Fold (BLI enhancement, S/B ratio over control)” value came out at 2.2 fold.

Regarding `O=C(Nc1ccccc1)OCC(CN1CCCCC1)OC(=O)Nc1ccccc1` (stereo not drawn) [diperodon hydrochloride], the “Fold (BLI enhancement, S/B ratio over control)” value is 2.6 fold.

As for `CCN(CCCCOC(=O)c1ccc(OC)c(OC)c1)C(C)Cc1ccc(OC)cc1` (stereo not drawn) [mebeverine hydrochloride], the “Fold (BLI enhancement, S/B ratio over control)” value came out at 3.2 fold.

For the compound `COc1ccc(CN2CCN(C(c3ccc(F)cc3)c3ccc(F)cc3)CC2)c(OC)c1OC` [lomerizine hydrochloride], the “Fold (BLI enhancement, S/B ratio over control)” value is recorded as 4.0 fold.

Consider `CCc1c2c(nc3ccc(OC(=O)N4CCC(N5CCCCC5)CC4)cc13)-c1cc3c(c(=O)n1C2)COC(=O)[C@]3(O)CC` [irinotecan hydrochloride], for which the “Fold (BLI enhancement, S/B ratio over control)” value came to 4.0 fold.

Turning to `CCC(=O)OCC(=O)[C@@]1(OC(=O)CC)[C@@H](C)C[C@H]2[C@@H]3CCC4=CC(=O)C=C[C@]4(C)[C@@]3(Cl)[C@@H](O)C[C@@]21C` [beclomethasone dipropionate], the “Fold (BLI enhancement, S/B ratio over control)” value was 3.2 fold.

On to `C[C@]12CC[C@@H]3c4ccc(O)cc4CC[C@H]3[C@@H]1CC[C@@H]2O` [estradiol], for which the “fold (BLI enhancement), additional previously known ABCG2 inhibitors” value worked out at 3.6 fold.

For `COc1ccc(CCN2CCC(Nc3nc4ccccc4n3Cc3ccc(F)cc3)CC2)cc1` [astemizole], the “Fold (BLI enhancement, S/B ratio over control)” value came out at 2.8 fold.

As to `COc1cc(N)c(Cl)cc1C(=O)NC1CCN(Cc2ccccc2)CC1` [clebopride], the “Fold … previously unknown compounds” value was found to be 6.7 fold and the “Fold (BLI enhancement, S/B ratio over control)” value was 6.7 fold.

`C[C@]12CC[C@@H]3c4ccc(O)cc4CC[C@H]3[C@@H]1CCC2=O` [estrone]: the “fold (BLI enhancement), additional previously known ABCG2 inhibitors” value was 4.1 fold.

For the compound `OCc1cc(C(O)CNCCCCCCOCCCCc2ccccc2)ccc1O` (stereo not drawn) [salmeterol xinafoate], the “Fold (BLI enhancement, S/B ratio over control)” value stood at 2.4 fold.

As for `O=c1[nH]c2ccccc2n1C1CCN(CCCC(c2ccc(F)cc2)c2ccc(F)cc2)CC1` [pimozide], the “Fold (BLI enhancement, S/B ratio over control)” value was determined as 2.0 fold.

For `Nc1c2ccccc2nc2ccccc12` [aminacrine], the “Fold (BLI enhancement, S/B ratio over control)” value is recorded as 2.9 fold.

Take `CC1(C)O[C@@H]2C[C@H]3[C@@H]4CCC5=CC(=O)CC[C@]5(C)[C@@]4(F)[C@@H](O)C[C@]3(C)[C@]2(C(=O)CCl)O1` [halcinonide]: the “Fold (BLI enhancement, S/B ratio over control)” value was determined as 2.2 fold.

As for `COc1cc([S+](C)[O-])ccc1-c1nc2ncccc2[nH]1` (stereo not drawn) [sulmazole], the “Fold (BLI enhancement, S/B ratio over control)” value was 3.0 fold.

For `COC(=O)Nc1nc2ccc([S+]([O-])c3ccccc3)cc2[nH]1` (stereo not drawn) [oxfendazole], the “Fold (BLI enhancement, S/B ratio over control)” value was determined as 2.1 fold.

As for `N#Cc1ccc2c(c1)N(CCCN1CCC(O)CC1)c1ccccc1S2` [periciazine], the “Fold … previously unknown compounds” value was 6.3 fold.

Take `CCOC(=O)Nc1ccc2c(c1)N(C(=O)CCN1CCOCC1)c1ccccc1S2` [moricizine hydrochloride]: the “Fold (BLI enhancement, S/B ratio over control)” value stood at 2.3 fold.
